Data published in patent publication US11939361B2, “Compositions of peptide inhibitors of Interleukin-23 receptor” (Janssen Pharmaceutica NV, priority 2020, dated 2024).

How the values were obtained:
[1] = Rat PK Study 1: intraduodenal/intracolonic dosing with absorption enhancers; assay type: in vivo, Sprague Dawley rats; details: for AUC(0-inf) / AUC(0-t) / Cmax / Tmax: male, Sprague Dawley, plasma, 10 mg/kg
Experimental: In this Example, a screen of various absorption enhancers was assessed. […] The following absorption enhancers were tested: sodium caprate (NaCl0), sodium salcaprozate (SNAC), sucrose laureate, Peptelligence (proprietary technology from Enteris Pharma-undisclosed composition) and Labrasol. The solutions were dosed by intracolonic (IC) or intraduodenal (ID) injection to rats. […] NaCl0 gave the highest systemic exposure followed by Peptelligence, then Labrasol, then SNAC, and finally sucrose laureate. Accordingly, sodium caprate was determined to be a preferred absorption enhancer. […] Therefore, the systemic exposure is likely to be high enough to afford systemic activity.
The following absorption enhancers were evaluated: sodium caprate (NaCl0, 100 mg/kg), SNAC (100 mg/kg), sucrose laurate (100 mg/kg), Enteris A (proprietary technology of Enteris Pharma) (60 mg/kg), and Labrasol (100 mg/kg).

[2] = test system: IL-23 induced phosphorylation of STAT3; experiment: Ex vivo whole blood phosphorylation of STAT3 assay, FIH 25 mg MAD cohort; assay type: in vivo; details: human, 25 mg oral once a day, 3 subjects, 100 ng/mL IL-23
Experimental: An ex vivo whole blood IL-23 induced STAT3 phosphorylation assay was also used to evaluate the systemic pharmacodynamic activity of the orally administered peptide of SEQ ID NO: 1 in the first-in-human study. This proximal IL-23R signaling assay was performed by analyzing IL-23 induced phosphorylation of STAT3 using a flow cytometer. Assay was implemented in the 25 mg MAD cohort, at multiple timepoints on Day 1 and Day 10, where healthy volunteers were given placebo or 25 mg of peptide of SEQ ID NO: 1 orally once a day for 10 consecutive days. On Days 1 and 10, when the assay was performed, subjects received their dose of placebo or peptide of SEQ ID NO: 1 following an overnight fast of approximately 10 hours and remained fasted for approximately 4 hours following dosing. […] Therefore, lower STAT3 phosphorylation as readout by the assay is associated with sufficient exposure to achieve systemic pharmacodynamic activity of orally dosed peptide of SEQ ID NO: 1. Since there is no dilution of blood required, and the readout is more proximal than IFNγ production, and the response is measured in the specific subset of immune cells that respond to IL-23, the pSTAT3 assay is a more sensitive pharmacodynamic readout than IFNγ. […]

[3] = other: intracolonic, IC dose 10 mg/kg, Enteris A 60 mg/kg
[4] = other: intracolonic, IC dose 10 mg/kg, Labrasol 100 mg/kg
[5] = other: intracolonic, IC dose 10 mg/kg, NaC10 100 mg/kg
[6] = other: intracolonic, IC dose 10 mg/kg, SNAC 100 mg/kg
[7] = other: intracolonic, IC dose 10 mg/kg, Sucrose laurate 100 mg/kg
[8] = other: intracolonic, IC dose 10 mg/kg, no absorption enhancer
[9] = other: intraduodenal, ID dose 10 mg/kg, Enteris A 60 mg/kg
[10] = other: intraduodenal, ID dose 10 mg/kg, Labrasol 100 mg/kg
[11] = other: intraduodenal, ID dose 10 mg/kg, NaC10 100 mg/kg
[12] = other: intraduodenal, ID dose 10 mg/kg, SNAC 100 mg/kg
[13] = other: intraduodenal, ID dose 10 mg/kg, Sucrose laurate 100 mg/kg
[14] = other: intraduodenal, ID dose 10 mg/kg, no absorption enhancer

CC(=O)NCCCC[C@@H]1NC(=O)[C@H](Cc2c[nH]c3c(C)cccc23)NC(=O)[C@H]([C@@H](C)O)NC(=O)[C@H](CC(N)=O)NC(=O)[C@@H](NC(C)=O)C(C)(C)SSC(C)(C)[C@@H](C(=O)N[C@@H](Cc2ccc(OCCN)cc2)C(=O)N[C@@H](Cc2ccc3ccccc3c2)C(=O)NC2(C(=O)N[C@@H](CCC(=O)O)C(=O)N[C@@H](CC(N)=O)C(=O)N[C@@H](Cc3cccnc3)C(=O)N(C)CC(N)=O)CCOCC2)NC1=O [SEQ ID NO: 1, Ac-[Pen]*—N-T-[W(7-Me)]-[Lys(Ac)]-[Pen]*-Phe[4-(2-aminoethoxy)]-[2-Nal]-[THP]-E-N-[3-Pal]-Sarc-NH2]
Fabs ([1]; IC dose 10 mg/kg, Enteris A 60 mg/kg): 2.98% | Fabs ([1]; IC dose 10 mg/kg, Labrasol 100 mg/kg): 5.82% | Fabs ([1]; IC dose 10 mg/kg, NaC10 100 mg/kg): 6.36% | Fabs ([1]; IC dose 10 mg/kg, SNAC 100 mg/kg): 1.64% | Fabs ([1]; IC dose 10 mg/kg, Sucrose laurate 100 mg/kg): 0.939% | Fabs ([1]; IC dose 10 mg/kg, no absorption enhancer): 0.0531% | Fabs ([1]; ID dose 10 mg/kg, Enteris A 60 mg/kg): 5.06% | Fabs ([1]; ID dose 10 mg/kg, Labrasol 100 mg/kg): 3.26% | Fabs ([1]; ID dose 10 mg/kg, NaC10 100 mg/kg): 6.24% | Fabs ([1]; ID dose 10 mg/kg, SNAC 100 mg/kg): 1.13% | Fabs ([1]; ID dose 10 mg/kg, Sucrose laurate 100 mg/kg): 0.764% | Fabs ([1]; ID dose 10 mg/kg, no absorption enhancer): 0.360% | AUC(0-inf) [1, 3]: 567 ng·h/mL | AUC(0-t) [1, 3]: 561 ng·h/mL | Cmax [1, 3]: 626 ng/mL | Tmax [1, 3]: 15 min | AUC(0-inf) [1, 4]: 1110 ng·h/mL | AUC(0-t) [1, 4]: 1100 ng·h/mL | Cmax [1, 4]: 976 ng/mL | Tmax [1, 4]: 15 min | AUC(0-inf) [1, 5]: 1210 ng·h/mL | AUC(0-t) [1, 5]: 1210 ng·h/mL | Cmax [1, 5]: 1030 ng/mL | Tmax [1, 5]: 20 min | AUC(0-inf) [1, 6]: 312 ng·h/mL | AUC(0-t) [1, 6]: 309 ng·h/mL | Cmax [1, 6]: 309 ng/mL | Tmax [1, 6]: 20 min | AUC(0-inf) [1, 7]: 179 ng·h/mL | AUC(0-t) [1, 7]: 176 ng·h/mL | Cmax [1, 7]: 191 ng/mL | Tmax [1, 7]: 15 min | Cmax [1, 8]: 4.99 ng/mL | Tmax [1, 8]: 35 min | AUC(0-inf) [1, 9]: 964 ng·h/mL | AUC(0-t) [1, 9]: 958 ng·h/mL | Cmax [1, 9]: 988 ng/mL | Tmax [1, 9]: 15 min | AUC(0-inf) [1, 10]: 621 ng·h/mL | AUC(0-t) [1, 10]: 617 ng·h/mL | Cmax [1, 10]: 625 ng/mL | Tmax [1, 10]: 15 min | AUC(0-inf) [1, 11]: 1190 ng·h/mL | AUC(0-t) [1, 11]: 1190 ng·h/mL | Cmax [1, 11]: 1220 ng/mL | Tmax [1, 11]: 15 min | AUC(0-inf) [1, 12]: 215 ng·h/mL | AUC(0-t) [1, 12]: 210 ng·h/mL | Cmax [1, 12]: 209 ng/mL | Tmax [1, 12]: 15 min | AUC(0-inf) [1, 13]: 145 ng·h/mL | AUC(0-t) [1, 13]: 141 ng·h/mL | Cmax [1, 13]: 107 ng/mL | Tmax [1, 13]: 15 min | AUC(0-inf) [1, 14]: 68.6 ng·h/mL | Cmax [1, 14]: 23.1 ng/mL | Tmax [1, 14]: 40 min | AUC(0-t) ([1]; other: intraduodenal, ID dose 10 mg/kg, no absorption enhancer, last time point 2, 4, 6, 8, or 24 hours): 62 ng·h/mL | inhibition of STAT3 phosphorylation in memory CD26high CD4+ T cells, memory CD26high CD8+ T cells and CD26high NKT cells [2]: near-complete inhibition
